Test results taken from US20240228535A1 (priority 2022, published 2024).

Biological target: SARS2 coronavirus 3CL protease (Severe acute respiratory syndrome coronavirus 2, UniProt P0DTD1)
Assay: biochemical
Conditions: 5 nM enzyme, 30 min pre-incubation with compound, 15 μM peptide substrate, 4 h at room temperature; read-out: FRET Potency (nM); IC50 values in the SARS2 3CLPro FRET assay

Question: How did the IC50 turn out when `CNC(=O)C(=O)[C@H](C[C@@H]1C[C@@H](C)NC1=O)NC(=O)c1cc(Cl)ccc1NC(=O)c1cccc(C(F)(F)F)n1` [Example 26, N-[4-chloro-2-[[(1S)-3-(methylamino)-1-[[(3S,5R)-5-methyl-2-oxo-pyrrolidin-3-yl]methyl]-2,3-dioxo-propyl]carbamoyl]phenyl]-6-(trifluoromethyl)pyridine-2-carboxamide] was run?
Answer: 17.4 nM

Question: Which IC50 does the source give for `C[C@@H]1C[C@@H](C[C@H](NC(=O)c2cc(Cl)cnc2NC(=O)C23CC(F)(C2)C3)C(=O)C(=O)NC2CC2)C(=O)N1` [Example 27, 5-chloro-N-[(1S)-3-(cyclopropylamino)-1-[[(3S,5R)-5-methyl-2-oxo-pyrrolidin-3-yl]methyl]-2,3-dioxo-propyl]-2-[(3-fluorobicyclo[1.1.1]pentane-1-carbonyl)amino]pyridine-3-carboxamide] here?
Answer: 13.6 nM

Question: For `CNC(=O)C(=O)[C@H](C[C@@H]1C[C@@H](C)NC1=O)NC(=O)c1cc(F)cnc1NC(=O)c1cccc(C(F)(F)F)c1` [Example 28, 5-fluoro-N-[(1S)-3-(methylamino)-1-[[(3S,5R)-5-methyl-2-oxo-pyrrolidin-3-yl]methyl]-2,3-dioxo-propyl]-2-[[3-(trifluoromethyl)benzoyl]amino]pyridine-3-carboxamide], which IC50 is on record?
Answer: 13.2 nM

Question: Which IC50 does the source give for `O=C(CCC(F)(F)F)Nc1ccc(Cl)cc1C(=O)N[C@@H](C[C@@H]1CCNC1=O)C(=O)C(=O)NC1CC1` [Example 29, 5-chloro-N-[(1S)-3-(cyclopropylamino)-2,3-dioxo-1-[[(3S)-2-oxopyrrolidin-3-yl]methyl]propyl]-2-(4,4,4-trifluorobutanoylamino) benzamide] here?
Answer: 13.1 nM

Question: For `O=C(NC1CC1)C(=O)[C@H](C[C@@H]1CCNC1=O)NC(=O)c1cc(Cl)ccc1NC(=O)C12CC(F)(C1)C2` [Example 30, N-[4-chloro-2-[[(1S)-3-(cyclopropylamino)-2,3-dioxo-1-[[(3S)-2-oxopyrrolidin-3-yl]methyl]propyl]carbamoyl]phenyl]-3-fluoro-bicyclo[1.1.1]pentane-1-carboxamide], which IC50 is on record?
Answer: 12.9 nM

Question: How did the IC50 turn out when `CNC(=O)C(=O)[C@H](C[C@@H]1C[C@@H](C)NC1=O)NC(=O)c1cc(Cl)ccc1NC(=O)OC(C)C` [Example 31, isopropyl N-[4-chloro-2-[[(1S)-3-(methylamino)-1-[[(3S,5R)-5-methyl-2-oxo-pyrrolidin-3-yl]methyl]-2,3-dioxo-propyl]carbamoyl]phenyl] carbamate] was run?
Answer: 12.4 nM

Question: `C[C@@H]1C[C@@H](C[C@H](NC(=O)c2cc(C#N)ccc2NC(=O)c2cccc(F)c2)C(=O)C(=O)NC2CC2)C(=O)N1` [Example 32, 5-cyano-N-[(1S)-3-(cyclopropylamino)-1-[[(3S,5R)-5-methyl-2-oxo-pyrrolidin-3-yl]methyl]-2,3-dioxo-propyl]-2-[(3-fluorobenzoyl)amino] benzamide] was tested. Which IC50 did it give?
Answer: 12.3 nM

Question: `C[C@@H]1C[C@@H](C[C@H](NC(=O)c2cc(Cl)c(F)cc2NC(=O)C2(C(F)(F)F)CC2)C(=O)C(=O)NC2CC2)C(=O)N1` [Example 33, 5-chloro-N-[(1S)-3-(cyclopropylamino)-1-[[(3S,5R)-5-methyl-2-oxo-pyrrolidin-3-yl]methyl]-2,3-dioxo-propyl]-4-fluoro-2-[[1-(trifluoromethyl)cyclopropane-carbonyl]amino]benzamide] was tested. Which IC50 did it give?
Answer: 12.2 nM

Question: With `CNC(=O)C(=O)[C@H](C[C@@H]1C[C@@H](C)NC1=O)NC(=O)c1cc(Cl)ccc1NC(=O)C1(C(F)(F)F)CC1` [Example 34, 5-chloro-N-[(1S)-3-(methylamino)-1-[[(3S,5R)-5-methyl-2-oxo-pyrrolidin-3-yl]methyl]-2,3-dioxo-propyl]-2-[[1-(trifluoromethyl)cyclopropane-carbonyl]amino]benzamide] as the compound, how does the IC50 read?
Answer: 11.2 nM

Question: Which IC50 does the source give for `C[C@@H]1C[C@@H](C[C@H](NC(=O)c2cc(Cl)ccc2NC(=O)C2(C(F)(F)F)CCC2)C(=O)C(=O)NC2CC2)C(=O)N1` [Example 35, 5-chloro-N-[(1S)-3-(cyclopropylamino)-1-[[(3S,5R)-5-methyl-2-oxo-pyrrolidin-3-yl]methyl]-2,3-dioxo-propyl]-2-[[1-(trifluoromethyl)cyclobutanecarbonyl]amino]benzamide] here?
Answer: 11.1 nM

Question: With `O=C(NC1CC1)C(=O)[C@H](C[C@@H]1CCNC1=O)NC(=O)c1cc(Cl)ccc1NC(=O)C1(CC(F)(F)F)CC1` [Example 36, 5-chloro-N-[(1S)-3-(cyclopropylamino)-2,3-dioxo-1-[[(3S)-2-oxopyrrolidin-3-yl]methyl]propyl]-2-[[1-(2,2,2-trifluoroethyl)cyclopropane-carbonyl]amino]benzamide] as the compound, how does the IC50 read?
Answer: 10.7 nM

Question: With `O=C(NC1CC1)C(=O)[C@H](C[C@@H]1CCNC1=O)NC(=O)c1cc(Cl)ccc1NC(=O)C12CC(F)(C1)C2` [Example 37, N-[4-chloro-2-[[(1S)-3-(cyclopropylamino)-2,3-dioxo-1-[[(3S)-2-oxopyrrolidin-3-yl]methyl]propyl]carbamoyl]phenyl]-3-fluoro-bicyclo[1.1.1]pentane-1-carboxamide] as the compound, how does the IC50 read?
Answer: 10.7 nM

Question: `O=C(CC(F)(F)F)Nc1ccc(Cl)cc1C(=O)N[C@@H](C[C@@H]1CCNC1=O)C(=O)C(=O)NC1CC1` [Example 38, 5-chloro-N-[(1S)-3-(cyclopropylamino)-2,3-dioxo-1-[[(3S)-2-oxopyrrolidin-3-yl]methyl]propyl]-2-(3,3,3-trifluoropropanoylamino) benzamide] was tested. Which IC50 did it give?
Answer: 10.5 nM

Question: How did the IC50 turn out when `C[C@@H]1C[C@@H](C[C@H](NC(=O)c2cc(Cl)cnc2NC(=O)C2CCC(F)(F)CC2)C(=O)C(=O)NC2CC2)C(=O)N1` [Example 39, 5-chloro-N-[(1S)-3-(cyclopropylamino)-1-[[(3S,5R)-5-methyl-2-oxo-pyrrolidin-3-yl]methyl]-2,3-dioxo-propyl]-2-[(4,4-difluorocyclohexanecarbonyl)amino]pyridine-3-carboxamide] was run?
Answer: 10.3 nM

Question: With `C[C@@H]1C[C@@H](C[C@H](NC(=O)c2cc(Cl)ccc2NC(=O)c2cccc(C(F)(F)F)n2)C(=O)C(=O)NC2CC2)C(=O)N1` [Example 40] as the compound, how does the IC50 read?
Answer: 10 nM

Question: Which IC50 does the source give for `CNC(=O)C(=O)[C@H](C[C@@H]1C[C@@H](C(F)(F)F)NC1=O)NC(=O)c1cc(Cl)ccc1NC(=O)C1CC(F)(F)C1` [Example 41, 5-chloro-2-[(3,3-difluorocyclobutanecarbonyl)amino]-N-[(1S)-3-(methylamino)-2,3-dioxo-1-[[(3R,5S)-2-oxo-5-(trifluoromethyl)pyrrolidin-3-yl]methyl]propyl]benzamide] here?
Answer: 9.9 nM

Question: With `C[C@@H]1C[C@@H](C[C@H](NC(=O)c2cc(Cl)ccc2NC(=O)CC(F)(F)F)C(=O)C(=O)NC2CC2)C(=O)N1` [Example 42, 5-chloro-N-[(1S)-3-(cyclopropylamino)-1-[[(3S,5R)-5-methyl-2-oxo-pyrrolidin-3-yl]methyl]-2,3-dioxo-propyl]-2-(3,3,3-trifluoropropanoylamino) benzamide] as the compound, how does the IC50 read?
Answer: 9.8 nM

Question: How did the IC50 turn out when `CNC(=O)C(=O)[C@H](C[C@@H]1C[C@@H](C(F)(F)F)NC1=O)NC(=O)c1cc(Cl)cnc1NC(=O)c1cccc(C(F)(F)F)c1` [Example 43, 5-chloro-N-[(1S)-3-(methylamino)-2,3-dioxo-1-[[(3R,5S)-2-oxo-5-(trifluoromethyl)pyrrolidin-3-yl]methyl]propyl]-2-[[3-(trifluoromethyl)benzoyl]amino]pyridine-3-carboxamide] was run?
Answer: 9.6 nM

Question: How did the IC50 turn out when `C[C@@H]1C[C@@H](C[C@H](NC(=O)c2cc(C(F)F)ccc2NC(=O)c2cccc(C(F)(F)F)c2)C(=O)C(=O)NC2CC2)C(=O)N1` [Example 44, N-[(1S)-3-(cyclopropylamino)-1-[[(3S,5R)-5-methyl-2-oxo-pyrrolidin-3-yl]methyl]-2,3-dioxo-propyl]-5-(difluoromethyl)-2-[[3-(trifluoromethyl)benzoyl]amino]benzamide] was run?
Answer: 9.4 nM

Question: How did the IC50 turn out when `CNC(=O)C(=O)[C@H](C[C@@H]1C[C@@H](C)NC1=O)NC(=O)c1cc(Cl)ccc1NC(=O)c1cccc(C(F)(F)F)c1` [Example 45, 5-chloro-N-[(1S)-3-(methylamino)-1-[[(3S,5R)-5-methyl-2-oxo-pyrrolidin-3-yl]methyl]-2,3-dioxo-propyl]-2-[[3-(trifluoromethyl)benzoyl]amino]benzamide] was run?
Answer: 9.4 nM

Question: `CNC(=O)C(=O)[C@H](C[C@@H]1C[C@@H](C)NC1=O)NC(=O)c1cc(Cl)ccc1NC(=O)C12CC(C(F)(F)F)(C1)C2` [Example 46, N-[4-chloro-2-[[(1S)-3-(methylamino)-1-[[(3S,5R)-5-methyl-2-oxo-pyrrolidin-3-yl]methyl]-2,3-dioxo-propyl]carbamoyl]phenyl]-3-(trifluoromethyl)bicyclo[1.1.1] pentane-1-carboxamide] was tested. Which IC50 did it give?
Answer: 8.9 nM

Question: Which IC50 does the source give for `CNC(=O)C(=O)[C@H](C[C@@H]1CCNC1=O)NC(=O)c1cc(Cl)ccc1NC(=O)C12CC(F)(C1)C2` [Example 47] here?
Answer: 8.8 nM

Question: `C[C@@H]1C[C@@H](C[C@H](NC(=O)c2cc(Cl)ccc2NC(=O)c2cccc(C(F)(F)F)c2)C(=O)C(N)=O)C(=O)N1` [Example 48, N-[(1S)-3-amino-1-[[(3S,5R)-5-methyl-2-oxo-pyrrolidin-3-yl]methyl]-2,3-dioxo-propyl]-5-chloro-2-[[3-(trifluoromethyl)benzoyl]amino]benzamide] was tested. Which IC50 did it give?
Answer: 8.8 nM

Question: How did the IC50 turn out when `C[C@@H]1C[C@@H](C[C@H](NC(=O)c2cc(F)c(F)cc2NC(=O)c2ccnc(C(F)(F)F)c2)C(=O)C(=O)NC2CC2)C(=O)N1` [Example 49, N-[2-[[(1S)-3-(cyclopropylamino)-1-[[(3S,5R)-5-methyl-2-oxo-pyrrolidin-3-yl]methyl]-2,3-dioxo-propyl]carbamoyl]-4,5-difluoro-phenyl]-2-(trifluoromethyl)pyridine-4-carboxamide] was run?
Answer: 8.8 nM

Question: `CNC(=O)C(=O)[C@H](C[C@@H]1C[C@@H](C)NC1=O)NC(=O)c1cc(Cl)cnc1NC(=O)C12CC(F)(C1)C2` [Example 50, 5-chloro-2-[(3-fluorobicyclo[1.1.1]pentane-1-carbonyl)amino]-N-[(1S)-3-(methylamino)-1-[[(3S,5R)-5-methyl-2-oxo-pyrrolidin-3-yl]methyl]-2,3-dioxo-propyl]pyridine-3-carboxamide] was tested. Which IC50 did it give?
Answer: 8.7 nM
